From patent US20150105252A1, “SUBSTITUTED PYRAZOLES AS HERBICIDES” (E I DU PONT DE NEMOURS AND COMPANY, priority 2013, published 2015)

What was measured:
corn = test: Test C postemergence; format: in vivo, Zea mays; details: for Plant response rating (scale of 0 to 100 where 0 is no effect and 100 is complete control), Corn: Postemergence, 31 g ai/ha, visually evaluated after 13 to 15 days; for Corn plant response rating / Plant response rating, Corn: postemergence; for Corn plant response rating: 62 g ai/ha, scale 0 to 100
Method in brief: (§1)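 Postemergence values come from plants sprayed at the 1- to 4-leaf stage (2–18 cm) in peat moss–vermiculite medium; preemergence values from seeds treated in a loam–sand blend. Both evaluated visually against controls after 13–15 greenhouse days, scale 0–100.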

wheat [1] = test: Test C postemergence; format: in vivo, Triticum aestivum; details: postemergence; for Plant response rating, Wheat: 250 g ai/ha, scale 0 to 100 (0 no effect, 100 complete control); for Wheat plant response rating: scale 0 to 100
Method in brief: as §1

soybean = test: Test C postemergence; format: in vivo, Glycine max; details: postemergence; for Plant response rating, Soybean: 250 g ai/ha, scale 0 to 100 (0 no effect, 100 complete control); for Soybean plant response rating: 125 g ai/ha, scale 0 to 100, 0 no effect, 100 complete control
Method in brief: as §1

velvetleaf = test: Test A preemergence; format: in vivo, Abutilon theophrasti; details: preemergence; for Velvetleaf plant response rating (0 to 100 scale): 125 g ai/ha, visual injury approx. 10 days after treatment; for Velvetleaf plant response rating: 500 g ai/ha, visual injury after approx. 10 days, 0 to 100 scale (0 no effect, 100 complete control)
Method in brief: (§2)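 Scoring was visual, on a scale where 100 means complete control and 0 means no effect, comparing treated with untreated plants around 10 days post-application. Compounds in surfactant-containing non-phytotoxic solvent were sprayed onto soil preemergence or onto one- to two-leaf seedlings (2–10 cm) postemergence.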

pigweed [2] = test: Test C postemergence; format: in vivo, Amaranthus retroflexus; details: postemergence; for Pigweed plant response rating: 62 g ai/ha, scale 0 to 100
Method in brief: as §1

oilseed rape = test: Test C preemergence; format: in vivo, Brassica napus; details: preemergence; for Plant response rating, Oilseed Rape: 125 g ai/ha, scale 0 to 100, 0 = no effect, 100 = complete control
Method in brief: as §1

pigweed [3] = test: Test A preemergence; format: in vivo, Amaranthus retroflexus; details: preemergence; for Pigweed plant response rating (0 to 100 scale): 125 g ai/ha, visual injury approx. 10 days after treatment; for Pigweed plant response rating: 500 g ai/ha, visual injury after approx. 10 days, 0 to 100 scale (0 no effect, 100 complete control)
Method in brief: as §2

wheat [4] = test: Test C preemergence; format: in vivo, Triticum aestivum; details: preemergence; for Plant response rating, Wheat: 125 g ai/ha, scale 0 to 100, 0 = no effect, 100 = complete control
Method in brief: as §1

ragweed = test: Test C postemergence; format: in vivo, Ambrosia elation; details: postemergence
Method in brief: as §1

galium = test: Test C preemergence; format: in vivo, Galium aparine; details: preemergence; for Plant response rating, Galium: 125 g ai/ha, scale 0 to 100, 0 = no effect, 100 = complete control
Method in brief: as §1

ryegrass, Italian = test: Test C preemergence; format: in vivo, Lolium multiflorum; details: preemergence; for Plant response rating, Ryegrass, Italian: 125 g ai/ha, scale 0 to 100, 0 = no effect, 100 = complete control
Method in brief: as §1

barnyardgrass = test: Test B flood; format: in vivo, Echinochloa crus-galli; details: 250 g ai/ha, visual rating on 0 to 100 scale (0 no effect, 100 complete control), 13 to 15 days
Method in brief: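 Plants were grown to the 2-leaf stage and pots flooded to 3 cm above soil. Compounds were applied directly into the paddy water, with depth kept for the test. After 13–15 days in greenhouse, response was rated visually against controls on a 0 (no effect) to 100 (complete control) scale.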

johnsongrass = test: Test C postemergence; format: in vivo, Sorghum halepense; details: for Plant response rating (scale of 0 to 100 where 0 is no effect and 100 is complete control), Johnsongrass: Postemergence, 31 g ai/ha, visually evaluated after 13 to 15 days; for Johnsongrass plant response rating / Plant response rating, Johnsongrass: postemergence; for Johnsongrass plant response rating: 62 g ai/ha, scale 0 to 100
Method in brief: as §1

chickweed = test: Test C postemergence; format: in vivo, Stellaria media; details: for Plant response rating (scale of 0 to 100 where 0 is no effect and 100 is complete control), Chickweed: Postemergence, 31 g ai/ha, visually evaluated after 13 to 15 days; for Chickweed plant response rating / Plant response rating, Chickweed: postemergence; for Chickweed plant response rating: 62 g ai/ha, scale 0 to 100
Method in brief: as §1

[5] = 250 g ai/ha, scale 0 to 100 (0 no effect, 100 complete control)
[6] = 125 g ai/ha, scale 0 to 100, 0 no effect, 100 complete control
[7] = 31 g ai/ha, visual rating, scale 0 to 100 (0 no effect, 100 complete control), 13 to 15 days
[8] = 62 g ai/ha, scale 0 to 100 (0 no effect, 100 complete control), 13 to 15 days
[9] = 250 g ai/ha, scale 0 to 100, 0 is no effect, 100 is complete control

CCCc1cc(C(=O)NOCC)nn1Cc1ccnc(C(F)(F)F)c1 [Compound 185]
Plant response rating (scale of 0 to 100 where 0 is no effect and 100 is complete control), Corn (corn): 5
Corn plant response rating (corn): 5
Plant response rating, Corn (corn; [5]): 65
Plant response rating, Corn (corn; [6]): 5
Plant response rating, Wheat (wheat [1]): 10
Wheat plant response rating (wheat [1]): 5
Plant response rating, Soybean (soybean): 50
Soybean plant response rating (soybean): 40
Velvetleaf plant response rating (0 to 100 scale) (velvetleaf): 70
Velvetleaf plant response rating (velvetleaf): 100
Pigweed plant response rating (pigweed [2]): 50
Plant response rating, Pigweed (pigweed [2]; [5]): 85
Plant response rating, Pigweed (pigweed [2]; [6]): 75
Oilseed Rape plant response rating (oilseed rape; [7]): 70
Oilseed Rape plant response rating (oilseed rape; [8]): 80
Plant response rating, Oilseed Rape (oilseed rape; 13 to 15 days): 85
Oilseed Rape plant response rating (oilseed rape; [9]): 100
Pigweed plant response rating (0 to 100 scale) (pigweed [3]): 0
Pigweed plant response rating (pigweed [3]): 0
Wheat plant response rating (wheat [4]; [7]): 0
Wheat plant response rating (wheat [4]; [8]): 60
Plant response rating, Wheat (wheat [4]; 13 to 15 days): 85
Wheat plant response rating (wheat [4]; [9]): 90
Plant response rating, Ragweed (ragweed; [5]): 30
Plant response rating, Ragweed (ragweed; [6]): 40
Galium plant response rating (galium; [7]): 80
Galium plant response rating (galium; [8]): 100
Plant response rating, Galium (galium; 13 to 15 days): 95
Galium plant response rating (galium; [9]): 100
Ryegrass, Italian plant response rating (ryegrass, Italian; [7]): 0
Ryegrass, Italian plant response rating (ryegrass, Italian; [8]): 30
Plant response rating, Ryegrass, Italian (ryegrass, Italian; 13 to 15 days): 90
Ryegrass, Italian plant response rating (ryegrass, Italian; [9]): 90
Plant response rating, Barnyardgrass (barnyardgrass): 20
Plant response rating (scale of 0 to 100 where 0 is no effect and 100 is complete control), Johnsongrass (johnsongrass): 0
Johnsongrass plant response rating (johnsongrass): 0
Plant response rating, Johnsongrass (johnsongrass; [5]): 5
Plant response rating, Johnsongrass (johnsongrass; [6]): 0
Plant response rating (scale of 0 to 100 where 0 is no effect and 100 is complete control), Chickweed (chickweed): 70
Chickweed plant response rating (chickweed): 80
Plant response rating, Chickweed (chickweed; [5]): 85
Plant response rating, Chickweed (chickweed; [6]): 85

CCOc1cc(C(=O)NC(C)C)nn1Cc1ccnc(C(F)(F)F)c1 [Compound 188]
Plant response rating (scale of 0 to 100 where 0 is no effect and 100 is complete control), Corn (corn): 5
Corn plant response rating (corn): 55
Plant response rating, Corn (corn; [5]): 60
Plant response rating, Corn (corn; [6]): 20
Plant response rating, Wheat (wheat [1]): 40
Wheat plant response rating (wheat [1]): 15
Plant response rating, Soybean (soybean): 98
Soybean plant response rating (soybean): 95
Velvetleaf plant response rating (0 to 100 scale) (velvetleaf): 100
Velvetleaf plant response rating (velvetleaf): 100
Pigweed plant response rating (pigweed [2]): 75
Plant response rating, Pigweed (pigweed [2]; [5]): 85
Plant response rating, Pigweed (pigweed [2]; [6]): 80
Oilseed Rape plant response rating (oilseed rape; [7]): 100
Oilseed Rape plant response rating (oilseed rape; [8]): 100
Plant response rating, Oilseed Rape (oilseed rape; 13 to 15 days): 100
Oilseed Rape plant response rating (oilseed rape; [9]): 100
Pigweed plant response rating (0 to 100 scale) (pigweed [3]): 100
Pigweed plant response rating (pigweed [3]): 100
Wheat plant response rating (wheat [4]; [7]): 85
Wheat plant response rating (wheat [4]; [8]): 90
Plant response rating, Wheat (wheat [4]; 13 to 15 days): 90
Wheat plant response rating (wheat [4]; [9]): 90
Plant response rating, Ragweed (ragweed; [5]): 90
Plant response rating, Ragweed (ragweed; [6]): 85
Galium plant response rating (galium; [7]): 98
Galium plant response rating (galium; [8]): 100
Plant response rating, Galium (galium; 13 to 15 days): 100
Galium plant response rating (galium; [9]): 100
Ryegrass, Italian plant response rating (ryegrass, Italian; [7]): 70
Ryegrass, Italian plant response rating (ryegrass, Italian; [8]): 90
Plant response rating, Ryegrass, Italian (ryegrass, Italian; 13 to 15 days): 90
Ryegrass, Italian plant response rating (ryegrass, Italian; [9]): 90
Plant response rating, Barnyardgrass (barnyardgrass): 75
Plant response rating (scale of 0 to 100 where 0 is no effect and 100 is complete control), Johnsongrass (johnsongrass): 0
Johnsongrass plant response rating (johnsongrass): 0
Plant response rating, Johnsongrass (johnsongrass; [5]): 65
Plant response rating, Johnsongrass (johnsongrass; [6]): 50
Plant response rating (scale of 0 to 100 where 0 is no effect and 100 is complete control), Chickweed (chickweed): 70
Chickweed plant response rating (chickweed): 85
Plant response rating, Chickweed (chickweed; [5]): 98
Plant response rating, Chickweed (chickweed; [6]): 80
